Test results reported in patent US12558428B2, “Heterobifunctional compounds and their use in treating disease” (Halda Therapeutics OpCo, Inc., priority 2024, dated 2026).

These molecules were tested on T-Rex 293 cells having increased expression of estrogen receptor alpha protein (assay: Cellular growth inhibition assay, T-Rex 293 cells, (+) doxycycline). Conditions: T-REx-293, 72 h, Table 7-A; T-Rex 293 cells with doxycycline (increased ERα expression); 72 hours; CellTiter-Glo; read-out: (+) Dox GI50.
Type: cell-based
Procedure, shortened: (§1)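 ERα overexpression was switched on by 3 ng/mL doxycycline in a stably transfected T-Rex 293 clone, while uninduced cells served as the comparison line. Proliferation over 72 h of compound treatment was assessed by ATP luminescence, and GI50 values came from four-parameter curves.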
For `Cc1sc2c(c1C)C(c1ccc(OCC3CN(CC4CCN(c5ccc([C@@H]6c7ccc(O)cc7CC[C@@H]6c6ccccc6)cc5)CC4)C3)cc1)=N[C@@H](C)c1nnc(C)n1-2` [III-70], the GI50 was less than 50 nM. Work on `Cc1sc2c(c1C)C(c1ccc(N3CCC(CN4CCN(c5ccc([C@@H]6c7ccc(O)cc7CC[C@@H]6c6ccccc6)cc5)CC4)CC3)cc1)=N[C@@H](Cc1ncco1)c1nnc(C)n1-2` [III-73] yielded a GI50 of less than 50 nM. `Cc1sc2c(c1C)C(c1ccc(N3CCC(CN4CCN(c5ccc([C@@H]6c7ccc(O)cc7CC[C@@H]6c6ccccc6)cc5)CC4)CC3)cc1)=N[C@H](Cc1ncco1)c1nnc(C)n1-2` [III-74] showed a GI50 of less than 50 nM. Work on `Cc1sc2c(c1C)C(c1ccc(N3CCC4(CC3)CN(CCOc3ccc([C@@H]5c6ccc(O)cc6CC[C@@H]5c5ccccc5)cc3)C4)cc1)=N[C@@H](C)c1nnc(C)n1-2` [III-78] yielded a GI50 of 50 to 500 nM. In the case of `Cc1sc2c(c1C)C(c1ccc(N3CCC4(CC3)CN(CCOc3ccc([C@H]5c6ccc(O)cc6CC[C@H]5c5ccccc5)cc3)C4)cc1)=N[C@@H](C)c1nnc(C)n1-2` [III-79], the GI50 is reported as 50 to 500 nM. `Cc1sc2c(c1C)C(c1ccc(N3CCN(CCC4CN(c5ccc([C@@H]6c7ccc(O)cc7CC[C@@H]6c6ccccc6)cc5)C4)CC3)cc1)=N[C@@H](C)c1nnc(C)n1-2` [III-80] gave a GI50 of 50 to 500 nM. `Cc1sc2c(c1C)C(c1ccc(N3CCN(CC4CCN(c5ccc([C@@H]6c7ccc(O)cc7CC[C@@H]6c6ccccc6)cc5)CC4)CC3)cc1)=N[C@@H](CC(=O)O)c1nnc(C)n1-2` [III-81] showed a GI50 of 50 to 500 nM. In the case of `Cc1sc2c(c1C)C(c1ccc(C34COC(CN5CCN(c6ccc([C@@H]7c8ccc(O)cc8CC[C@@H]7c7ccccc7)cc6)CC5)(C3)C4)cc1)=N[C@@H](C)c1nnc(C)n1-2` [III-82], the GI50 is reported as 50 to 500 nM.

Each molecule was assayed on T-Rex 293 cells lacking increased expression of estrogen receptor alpha protein (assay: Cellular growth inhibition assay, T-Rex 293 cells, (−) doxycycline). Conditions: T-REx-293, 72 h, Table 7-A; T-Rex 293 cells without doxycycline (lacking increased ERα expression); 72 hours; CellTiter-Glo; read-out: (−) Dox GI50.
Type: cell-based
Procedure, shortened: as §1
In the case of `Cc1sc2c(c1C)C(c1ccc(OCC3CN(CC4CCN(c5ccc([C@@H]6c7ccc(O)cc7CC[C@@H]6c6ccccc6)cc5)CC4)C3)cc1)=N[C@@H](C)c1nnc(C)n1-2` [III-70], the GI50 is reported as 50 to 500 nM. `Cc1sc2c(c1C)C(c1ccc(N3CCC(CN4CCN(c5ccc([C@@H]6c7ccc(O)cc7CC[C@@H]6c6ccccc6)cc5)CC4)CC3)cc1)=N[C@@H](Cc1ncco1)c1nnc(C)n1-2` [III-73] showed a GI50 of 500 to 2500 nM. With `Cc1sc2c(c1C)C(c1ccc(N3CCC(CN4CCN(c5ccc([C@@H]6c7ccc(O)cc7CC[C@@H]6c6ccccc6)cc5)CC4)CC3)cc1)=N[C@H](Cc1ncco1)c1nnc(C)n1-2` [III-74] the GI50 was 50 to 500 nM. Work on `Cc1sc2c(c1C)C(c1ccc(N3CCC4(CC3)CN(CCOc3ccc([C@@H]5c6ccc(O)cc6CC[C@@H]5c5ccccc5)cc3)C4)cc1)=N[C@@H](C)c1nnc(C)n1-2` [III-78] yielded a GI50 of 50 to 500 nM. `Cc1sc2c(c1C)C(c1ccc(N3CCC4(CC3)CN(CCOc3ccc([C@H]5c6ccc(O)cc6CC[C@H]5c5ccccc5)cc3)C4)cc1)=N[C@@H](C)c1nnc(C)n1-2` [III-79] showed a GI50 of 50 to 500 nM. `Cc1sc2c(c1C)C(c1ccc(N3CCN(CCC4CN(c5ccc([C@@H]6c7ccc(O)cc7CC[C@@H]6c6ccccc6)cc5)C4)CC3)cc1)=N[C@@H](C)c1nnc(C)n1-2` [III-80] showed a GI50 of 500 to 2500 nM. `Cc1sc2c(c1C)C(c1ccc(N3CCN(CC4CCN(c5ccc([C@@H]6c7ccc(O)cc7CC[C@@H]6c6ccccc6)cc5)CC4)CC3)cc1)=N[C@@H](CC(=O)O)c1nnc(C)n1-2` [III-81] gave a GI50 greater than 2500 nM. Molecule `Cc1sc2c(c1C)C(c1ccc(C34COC(CN5CCN(c6ccc([C@@H]7c8ccc(O)cc8CC[C@@H]7c7ccccc7)cc6)CC5)(C3)C4)cc1)=N[C@@H](C)c1nnc(C)n1-2` [III-82] has a GI50 of 500 to 2500 nM.

These molecules were tested on MCF7 cells (ATCC #HTB-22) (assay: Cellular growth inhibition assay, MCF7 cells purchased from ATCC). Conditions: Homo sapiens, MCF7, 144 h, Table 8-A; MCF7 cells purchased from ATCC; six days; CellTiter-Glo; read-out: GI50.
Type: cell-based
Procedure, shortened: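 MCF7 cells in RPMI 1640 with 10% FBS and 0.2 U/ml insulin, seeded at 1,500 cells/well (ATCC) or 225 cells/well (ECACC). Compounds added 24 h later, then 6 days at 37° C. Viability by CellTiter-Glo 2.0 luminescence. GI50 from four-parameter fit.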
`Cc1sc2c(c1C)C(c1ccc(OCC3CN(CC4CCN(c5ccc([C@@H]6c7ccc(O)cc7CC[C@@H]6c6ccccc6)cc5)CC4)C3)cc1)=N[C@@H](C)c1nnc(C)n1-2` [III-70] gave a GI50 of less than 50 nM. In the case of `Cc1sc2c(c1C)C(c1ccc(N3CCC(CN4CCN(c5ccc([C@@H]6c7ccc(O)cc7CC[C@@H]6c6ccccc6)cc5)CC4)CC3)cc1)=N[C@@H](Cc1ncco1)c1nnc(C)n1-2` [III-73], the GI50 is reported as less than 50 nM. For `Cc1sc2c(c1C)C(c1ccc(N3CCC(CN4CCN(c5ccc([C@@H]6c7ccc(O)cc7CC[C@@H]6c6ccccc6)cc5)CC4)CC3)cc1)=N[C@H](Cc1ncco1)c1nnc(C)n1-2` [III-74], the GI50 was 50 to 500 nM. `Cc1sc2c(c1C)C(c1ccc(N3CCC4(CC3)CN(CCOc3ccc([C@@H]5c6ccc(O)cc6CC[C@@H]5c5ccccc5)cc3)C4)cc1)=N[C@@H](C)c1nnc(C)n1-2` [III-78] gave a GI50 of 50 to 500 nM. With `Cc1sc2c(c1C)C(c1ccc(N3CCC4(CC3)CN(CCOc3ccc([C@H]5c6ccc(O)cc6CC[C@H]5c5ccccc5)cc3)C4)cc1)=N[C@@H](C)c1nnc(C)n1-2` [III-79] the GI50 was 50 to 500 nM. Work on `Cc1sc2c(c1C)C(c1ccc(N3CCN(CCC4CN(c5ccc([C@@H]6c7ccc(O)cc7CC[C@@H]6c6ccccc6)cc5)C4)CC3)cc1)=N[C@@H](C)c1nnc(C)n1-2` [III-80] yielded a GI50 greater than 2500 nM. `Cc1sc2c(c1C)C(c1ccc(N3CCN(CC4CCN(c5ccc([C@@H]6c7ccc(O)cc7CC[C@@H]6c6ccccc6)cc5)CC4)CC3)cc1)=N[C@@H](CC(=O)O)c1nnc(C)n1-2` [III-81] gave a GI50 of 50 to 500 nM. `Cc1sc2c(c1C)C(c1ccc(C34COC(CN5CCN(c6ccc([C@@H]7c8ccc(O)cc8CC[C@@H]7c7ccccc7)cc6)CC5)(C3)C4)cc1)=N[C@@H](C)c1nnc(C)n1-2` [III-82] gave a GI50 of 50 to 500 nM.
